This test addresses T1, Human FXR full length (Homo sapiens, UniProt Q96RI1).
T1 construct: Human FXR full length and RXR full length was obtained from Ronald Evans' laboratory; expressed in transfected cells; host or cells: CV-1 cells
T1 sequence (Q96RI1 1-476 isoform Q96RI1-1): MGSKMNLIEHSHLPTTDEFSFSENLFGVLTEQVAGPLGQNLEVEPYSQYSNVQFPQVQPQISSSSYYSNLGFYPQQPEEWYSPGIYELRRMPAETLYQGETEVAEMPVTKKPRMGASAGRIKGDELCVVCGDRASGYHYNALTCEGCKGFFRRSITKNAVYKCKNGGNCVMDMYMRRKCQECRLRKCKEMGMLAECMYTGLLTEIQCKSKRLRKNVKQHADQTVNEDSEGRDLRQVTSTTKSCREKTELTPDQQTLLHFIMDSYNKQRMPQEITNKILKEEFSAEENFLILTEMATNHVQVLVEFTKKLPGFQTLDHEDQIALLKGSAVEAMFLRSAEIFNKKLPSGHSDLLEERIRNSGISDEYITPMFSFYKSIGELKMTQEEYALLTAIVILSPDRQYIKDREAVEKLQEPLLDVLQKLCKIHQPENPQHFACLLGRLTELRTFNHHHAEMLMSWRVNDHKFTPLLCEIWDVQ
T1 sequence (P19793 1-462 partner): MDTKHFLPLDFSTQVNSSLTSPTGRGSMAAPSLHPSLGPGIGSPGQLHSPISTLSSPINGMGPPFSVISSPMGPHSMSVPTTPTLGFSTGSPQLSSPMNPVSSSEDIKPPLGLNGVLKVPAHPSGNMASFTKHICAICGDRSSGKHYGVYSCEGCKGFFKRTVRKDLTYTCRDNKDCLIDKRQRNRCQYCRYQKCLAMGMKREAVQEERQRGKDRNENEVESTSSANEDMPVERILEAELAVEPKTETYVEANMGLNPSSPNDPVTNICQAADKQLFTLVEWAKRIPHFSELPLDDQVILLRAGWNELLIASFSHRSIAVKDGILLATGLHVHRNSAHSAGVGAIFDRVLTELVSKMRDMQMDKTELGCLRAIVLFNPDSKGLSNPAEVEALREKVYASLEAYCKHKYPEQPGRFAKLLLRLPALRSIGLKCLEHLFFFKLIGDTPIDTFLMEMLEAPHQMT
Briefly: FXR activity screen, luciferase reporter in transfected CV-1 cells. Format: cell-based. As for the experimental part: CV-1 cells were grown in DMEM+10% charcoal stripped FCS. Cells were seeded into 384-well plates the day before transfection to give a confluency of 50-80% at transfection. A total of […] DNA containing 0.32 micrograms pCMX-hFXRfl, 0.32 micrograms pCMX-hRXRfl, 0.1 micrograms pCMXβGal, 0.08 micrograms pGLFXRE reporter and 0.02 micrograms pCMX empty vector was transfected per well using FuGene transfection reagent according to the manufacturer's instructions (Roche). Cells were allowed to express protein for 48 hours followed by addition of compound.
Human FXR full length and RXR full length was obtained from Ronald Evans' laboratory and PCR amplification of the hFXR cDNA and the hRXR cDNA was performed. The amplified cDNAs was cloned into the vector pCMX generating the plasmids pCMX-hFXRfl and pCMX-hRXRfl. Ensuing fusions were verified by sequencing. The pCMXMH2004 luciferase reporter contains multiple copies of the GAL4 DNA response element under a minimal eukaryotic promoter (Hollenberg and Evans, 1988). pCMXβGal was generated in the Evans laboratory, Salk Institute.
All compounds were dissolved in DMSO and diluted 1:1000 upon addition to the cells. Compounds were tested in quadruple in concentrations ranging from 0.001 to 100 μM. Cells were treated with compound for 24 hours followed by luciferase assay. Each compound was tested in at least two separate experiments.
Medium including test compound was aspirated and washed with PBS. 50 μL PBS including 1 mM Mg^2+ and Ca^2+ were then added to each well. The luciferase assay was performed using the LucLite kit according to the manufacturer's instructions (Packard Instruments). Light emission was quantified by counting on a Perkin Elmer Envision reader. To measure […] activity 25 μL supernatant from each transfection lysate was transferred to a new 384 microplate. Beta-galactosidase assays were performed in the microwell plates using a kit from Promega and read in a Perkin Elmer Envision reader. The beta-galactosidase data were used to normalize (transfection efficiency, cell growth etc.) the luciferase data.
The activity of a compound is calculated as fold induction compared to an untreated sample. For each compound the efficacy (maximal activity) is given as a relative activity compared to Fexaramine, a FXR agonist. The EC50 is the concentration giving 50% of maximal observed activity. EC50 values were calculated via non-linear regression using GraphPad PRISM (GraphPad Software, San Diego, Calif.).
For orientation: A reporter such as luciferase makes a cellular process visible.

Setting [1] is: first round, CV-1 cells, 24 hours, read-out: 1st RND EC50.
Where [2] appears, read: second round, CV-1 cells, 24 hours, read-out: 2nd RND EC50.
The mark [3] stands for this setting: retest, read-out: EC50 (retested).

Where two headings read alike, the source gives them in different places.

The term EC50 denotes the midpoint of the concentration-response curve. With `COC(=O)/C=C/c1cccc(N(Cc2ccc(-c3ccc(N(C)C)cc3)cc2Cl)C(=O)c2ccccc2)c1` [NSSK00055], the concentration for a half-maximal effect (EC50) runs as follows: under setting [1], 931 nM; under setting [2], 1400 nM.
The corresponding values for `COC(=O)/C=C/c1cncc(N(Cc2ccc(-c3ccc4c(cnn4C)c3)cc2Cl)C(=O)c2ccccc2)c1` [NSSK00092] are 3400 nM and 5500 nM.
In the same order, the values of `[2H]C(c1ccc(-c2ccc3c(cnn3C)c2)cc1Cl)N(C(=O)C1CCCCC1)c1cncc(/C=C/C(=O)OC)c1` (stereo not shown) [NSSK00095] are 1400 nM and 1500 nM.
The corresponding values for `[2H]C(c1ccc(-c2ccc3c(cnn3C)c2)cc1F)N(C(=O)c1ccccc1)c1cc(F)cc(/C=C/C(=O)OC)c1` (stereo not shown) [NSSK00039] are 1550 nM and 870 nM.
Take `COC(=O)/C=C/c1cccc(N(Cc2ccc(-c3ccc(N(C)C)cc3)cc2F)C(=O)[C@@H]2C[C@@H]3CC[C@H]2C3)c1` [NSSK00043]: the EC50 by setting is: under setting [1], 80.9 nM; under setting [2], 80.7 nM.
The corresponding values for `[2H]C(c1ccc(-c2ccc(N(C)C)cc2)cc1Cl)N(C(=O)C1CCCCC1)c1cc(F)cc(/C=C/C(=O)OC)c1` (stereo not shown) [NSSK00072] are 1100 nM and 2200 nM.
As for `COC(=O)/C=C/c1cc(F)cc(N(Cc2ccc(-c3ccc(N(C)C)cc3)cc2F)C(=O)[C@@H]2C[C@@H]3CC[C@H]2C3)c1` [NSSK00044], the EC50 by setting is: under setting [1], 149 nM; under setting [2], 144 nM.
Regarding `COC(=O)/C=C/c1cncc(N(Cc2cccc3cc4cnn(C)c4c(Cl)c23)C(=O)C2C[C@H]3CC[C@@H]2C3)c1` (stereo partly shown) [NSSK00022], the EC50 is 3200 nM under setting [1] and 2700 nM under setting [2].
Consider `[2H]C(c1ccc(-c2ccc(N(C)C)cc2)cc1F)N(C(=O)C1CCCCC1)c1cccc(/C=C/C(=O)OC)c1` (stereo not shown) [NSSK00027, methyl (E)-3-(3-(N-((4′-(dimethylamino)-3-fluoro-[1,1′-biphenyl]-4-yl)methyl-d)cyclohexanecarboxamido)phenyl)acrylate], for which the EC50 is, setting by setting: under setting [1], 48.9 nM; under setting [3], 118 nM; under setting [2], 46.6 nM.
For the compound `COC(=O)/C=C/c1cc(F)cc(N(Cc2ccc(-c3ccc(N(C)C)cc3)cc2Cl)C(=O)C2CCCCC2)c1` [NSSK00117], the EC50 reads like this: under setting [1], 983 nM; under setting [2], 1300 nM.
Turning to `COC(=O)/C=C/c1cccc(N(Cc2ccc(-c3ccc4c(cnn4C)c3)cc2)C(=O)c2ccccc2)c1` [NSSK00056], the EC50 worked out at 752 nM under setting [1] and 720 nM under setting [2].
As for `COC(=O)/C=C/c1cccc(N(Cc2ccc(-c3ccc4c(cnn4C)c3)cc2Cl)C(=O)C2CCCCC2)c1` [NSSK00091], the EC50 is, setting by setting: under setting [1], 801 nM; under setting [2], 628 nM.
In the same order, the values of `[2H]C(c1ccc(-c2ccc3c(cnn3C)c2)cc1Cl)N(C(=O)[C@@H]1C[C@@H]2CC[C@H]1C2)c1cccc(/C=C/C(=O)OC)c1` (stereo partly shown) [NSSK00013] are 390 nM and 430 nM.
Consider `[2H]C(c1ccc(-c2ccc(N(C)C)cc2)cc1F)N(C(=O)c1ccccc1)c1cc(F)cc(/C=C/C(=O)OC)c1` (stereo not shown) [NSSK00108], for which, under setting [2], the EC50 is 497 nM.
Same read-out and setting: the result for `COC(=O)/C=C/c1cncc(N(Cc2ccc(-c3ccc(N(C)C)cc3)cc2F)C(=O)[C@@H]2C[C@@H]3CC[C@H]2C3)c1` [NSSK00115] reads 2000 nM.
In the case of `COC(=O)/C=C/c1cc(F)cc(N(Cc2ccc(-c3ccc4c(cnn4C)c3)cc2Cl)C(=O)[C@@H]2C[C@@H]3CC[C@H]2C3)c1` [NSSK00047], the EC50 was determined as 355 nM under setting [1] and 403 nM under setting [2].
For `[2H]C(c1ccc(-c2ccc3c(cnn3C)c2)cc1)N(C(=O)c1ccccc1)c1cccc(/C=C/C(=O)OC)c1` (stereo not shown) [NSSK00049], the EC50 was 2800 nM under setting [1] and 3500 nM under setting [2].
In the same order, the values of `[2H]C(c1ccc(-c2ccc(N(C)C)cc2)cc1Cl)N(C(=O)[C@@H]1C[C@@H]2CC[C@H]1C2)c1cccc(/C=C/C(=O)OC)c1` (stereo partly shown) [NSSK00045] are 334 nM and 334 nM.
As to `[2H]C(c1ccc(-c2ccc3c(cnn3C)c2)cc1F)N(C(=O)C1CCCCC1)c1cccc(/C=C/C(=O)OC)c1` (stereo not shown) [NSSK00089, methyl (E)-3-(3-(N-((2-fluoro-4-(1-methyl-1H-indazol-5-yl)phenyl)methyl-d)cyclohexanecarboxamido)phenyl)acrylate], the EC50 under setting [1] was 383 nM, the EC50 under setting [3] is 366 nM and the EC50 under setting [2] amounted to 406 nM.
Regarding `COC(=O)/C=C/c1cncc(N(Cc2ccc(-c3ccc(N(C)C)cc3)cc2Cl)C(=O)c2ccccc2)c1` [NSSK00081], the EC50 under setting [1] was 22800 nM and the EC50 under setting [2] is 71000 nM.
The corresponding values for `COC(=O)/C=C/c1cc(F)cc(N(Cc2ccc(-c3ccc(N(C)C)cc3)cc2)C(=O)[C@@H]2C[C@@H]3CC[C@H]2C3)c1` [NSSK00102] are 252 nM and 328 nM.
For `[2H]C(c1ccc(-c2ccc3c(cnn3C)c2)cc1F)N(C(=O)[C@@H]1C[C@@H]2CC[C@H]1C2)c1cncc(/C=C/C(=O)OC)c1` (stereo partly shown) [NSSK00066], the EC50 reads like this: under setting [1], 5400 nM; under setting [2], 8500 nM.
As to `COC(=O)/C=C/c1cccc(N(Cc2ccc(-c3ccc4c(cnn4C)c3)cc2)C(=O)[C@H]2C[C@H]3CC[C@@H]2C3)c1` [NSSK00017], the EC50 stood at 756 nM under setting [1] and 500 nM under setting [2].
Take `[2H]C(c1ccc(-c2ccc(N(C)C)cc2)cc1)N(C(=O)c1ccccc1)c1cccc(/C=C/C(=O)OC)c1` (stereo not shown) [NSSK00048]: the EC50 under setting [1] came to 382 nM and the EC50 under setting [2] was determined as 357 nM.
In the same order, the values of `[2H]C(c1ccc(-c2ccc(N(C)C)cc2)cc1F)N(C(=O)[C@@H]1C[C@@H]2CC[C@H]1C2)c1cncc(/C=C/C(=O)OC)c1` (stereo partly shown) [NSSK00029] are 605 nM and 510 nM.
As for `[2H]C(c1ccc(-c2ccc3c(cnn3C)c2)cc1)N(C(=O)C1CCCCC1)c1cncc(/C=C/C(=O)OC)c1` (stereo not shown) [NSSK00034], the EC50 under setting [1] is 2200 nM and the EC50 under setting [2] is 2680 nM.
The corresponding values for `[2H]C(c1ccc(-c2ccc3c(cnn3C)c2)cc1F)N(C(=O)c1ccccc1)c1cncc(/C=C/C(=O)OC)c1` (stereo not shown) [NSSK00067] are 0.4 nM and 0.2 nM.
The corresponding values for `COC(=O)/C=C/c1cc(F)cc(N(Cc2ccc(-c3ccc4c(cnn4C)c3)cc2)C(=O)c2ccccc2)c1` [NSSK00058] are 1200 nM and 1500 nM.
In the same order, the values of `[2H]C(c1ccc(-c2ccc3c(cnn3C)c2)cc1Cl)N(C(=O)[C@@H]1C[C@@H]2CC[C@H]1C2)c1cncc(/C=C/C(=O)OC)c1` (stereo partly shown) [NSSK00073] are 119 nM and 146 nM.
As for `COC(=O)/C=C/c1cccc(N(Cc2ccc(-c3ccc(N(C)C)cc3)cc2F)C(=O)c2ccccc2)c1` [NSSK00054], the concentration for a half-maximal effect (EC50) is, setting by setting: under setting [1], 509 nM; under setting [2], 457 nM.
In the same order, the values of `[2H]C(c1ccc(-c2ccc(N(C)C)cc2)cc1)N(C(=O)c1ccccc1)c1cc(F)cc(/C=C/C(=O)OC)c1` (stereo not shown) [NSSK00114] are 264 nM and 614 nM.
In the same order, the values of `[2H]C(c1ccc(-c2ccc3c(cnn3C)c2)cc1)N(C(=O)c1ccccc1)c1cncc(/C=C/C(=O)OC)c1` (stereo not shown) [NSSK00119] are 798 nM and 65000 nM.

The values above are taken from patent US20190084939A1, “ANALOGS OF FEXARAMINE AND METHODS OF MAKING AND USING” (Salk Institute for Biological Studies, priority 2014, published 2019).
